The text below walks through data of publication PMC10021052, “Novel multivalent S100A8 inhibitory peptides attenuate tumor progression and metastasis by inhibiting the TLR4-dependent pathway” (Cancer Gene Therapy, 2023).

“Also recorded” adds a separate entry of the source.

One assay has as its target T1, TLR4/MD-2 complex (Homo sapiens, UniProt O00206+Q9Y6Y9).
T1 construct: TLR4/MD-2 recombinant protein (2 µg/ml) was added to each well
Nature of the assay: Divalent peptide library screening and ILVIK derivatives, binding to TLR4/MD-2 (ELISA). To be noted: ELISA-based, Fig. 7A, D. As to the method:
Spot synthesis of divalent peptides on a cellulose membrane was performed using a ResPep SL SPOT synthesizer (INTAVIS Bioanalytical Instruments AG, Koeln, Germany) as described previously. Briefly, Fmoc-β-Ala-OH (Watanabe Chemical Industries, Hiroshima, Japan) was used in the first cycle, followed by amino hexanoic acid as a spacer. Fmoc-Lys(Fmoc)-OH (Watanabe Chemical Industries) was used for the next cycle to form two branches in the peptide chain for the subsequent synthesis of the various motifs. The synthesis of each peptide was confirmed by staining the membrane using bromophenol blue (1% in N, N′-dimethylformamide), which reacts with free amino residues. Free amino residues are produced only after the completion of all reactions and before deprotection of the side chain residues. […]
S100A8 recombinant protein was purified as previously described. […] Absorbance OD450/OD650 was measured using a microplate reader (Thermo Fisher Scientific). […] The amount of interleukin-8 (IL-8) or VEGF in the supernatants were analyzed by ELISA kits (R&D Systems, Mineapolis, MN) according to the manufacturer’s instructions.
Fig. 7 Isolation of multivalent S100A8 inhibitory peptides using divalent peptide libraries based on the sequences of peptide3A5. […] The binding affinities to TLR4/MD-2 complex were determined using an ELISA-based assay. […]
On the technique in general: An ELISA detects its analyte on a solid surface through an enzyme-linked reagent.

The test system of a further assay is S100A8-TLR4/MD-2 complex. Description: Competitive inhibition of S100A8-TLR4/MD-2 binding (ELISA, S100A8 immobilized; also immunoprecipitation). Details: species or system human. To be noted: for competitive inhibition, potency compared with parent: ELISA, peptide3A5 vs peptide #3 (Fig. 3B), divalent vs monomer (Fig. 4A); for competitive inhibitory activity against TLR4/MD-2, peptide3A5-derived peptides: competitive inhibitory assay, Fig. 7B, E, *P < 0.05 vs TLR4/MD-2/S100A8. As to the method: (§1) S100A8 recombinant protein was purified as previously described. These proteins were immobilized on Maxisorp plates (Thermo Fisher Scientific, Waltham, MA, USA), followed by blocking with protein-free blocking buffer (Thermo Fisher Scientific). TLR4/MD-2 recombinant proteins with various concentrations of candidate peptides were then added to the indicated S100A8-immobilized ELISA plates for 2 h. The plates were washed, incubated with anti-TLR4 antibody, and HRP-conjugated secondary antibody, followed by the addition of substrate. The reaction was stopped by addition a 2N H2SO4 solution. Absorbance OD450/OD650 was measured using a microplate reader (Thermo Fisher Scientific). Maxisorp plates were also used for peptide coating. After blocking with protein-free blocking buffer, the coated plates were washed, and TLR4/MD-2 recombinant protein (2 µg/ml) was added to each well. The plates were incubated with a TLR4 antibody followed by horseradish peroxidase (HRP)-labeled anti-rabbit IgG. For detection of IL8 and VEGF in culture supernatants, SW480 cells were pretreated with the indicated peptides, and followed by stimulation with S100A8 for 24 h. The amount of interleukin-8 (IL-8) or VEGF in the supernatants were analyzed by ELISA kits (R&D Systems, Mineapolis, MN) according to the manufacturer’s instructions.
(§2) Fig. 2 Identification of S100A8 binding sites to human TLR4/MD-2. […] TLR4/MD-2 recombinant proteins were immobilized to the ELISA plate. After blocking, a full length or deletion mutant of S100A8 was added to the plate. The more detailed methods are described in Materials and Methods. […] B A series of overlapping S100A8 synthetic peptides. The TLR4/MD-2 recombinant proteins were added to each well of peptide immobilized plates. The affinity to TLR4/MD-2 was determined. Data are shown as mean ± SD. C The competitive activity was determined using ELISA. Data are shown as mean ± SD. D The TLR4/MD-2 was mixed with S100A8 with/without the indicated peptides, and immunoprecipitated using an anti-TLR4 antibody. TLR4 or S100A8 was visualized. Similar results were obtained in three independent experiments. […] Total RNAs from SW480 cells with/without treatment of the peptide candidates were extracted and qPCR analysis was performed using relevant primer sets and SYBR green. Relative expression levels were compared. […] TEXT PRINTED IN THE PICTURE: (A) Full length: TLR4/MD-2 binding: + | (A) S100A8-ΔC: TLR4/MD-2 binding: − | (A) S100A8-N: TLR4/MD-2 binding: −
(§3) Fig. 4 Improvement of competitive inhibition activity by divalent peptide3A5. A The binding capacity was measured at the indicated concentration using an ELISA-based assay. Similar results were obtained in three independent experiments. B SW480 cells were pretreated with 2.5 µM of divalent peptide3A5, and then stimulated with human S100A8 recombinant protein. After 30 min, cell lysates were subjected to western blotting using the indicated antibody. The divalent peptide#3 or peptide3A5 reduced the expression of S100A8-mediated IL-8 (C) and VEGF (D) induction. Total RNAs from SW480 cells with/without treatment of the peptide candidates were extracted and qPCR analysis was performed using relevant primer sets and SYBR green. Relative expression levels were compared. Peptide #3 suppresses S100A8-mediated IL-8(E) and VEGF (F) secretion in SW480 cells.

A further assay deals with PKH26-labeled LLC cells. Nature of the assay: Lung dissemination of PKH26-labeled LLC cells in TCM-sensitized mice. It counts as in vivo, C57BL/6J mice. Conditions: 10 mg/kg i.p. 1 h before last TCM injection; lungs 16 h after cells; 5–6 mice per group; *P < 0.05 vs control.
The test system of assay [1] is SW480 cells. Description: qPCR, S100A8-mediated IL-8 and VEGF mRNA induction in SW480 cells. It counts as cell-based, human. To be noted: qPCR, normalized to β-actin. As to the method: SW480 cells were treated with S100A8 in Dulbecco’s Modified Eagle Medium/HamF12 supplemented with 0.1% bovine serum albumin for cytokine induction. Total RNA was extracted using the RNeasy Mini Plus (Qiagen, Hilden, Germany). Complementary DNA was synthesized using the PrimeScript 1st Strand Synthesis kit (Takara Bio, Japan). Quantitative PCR (qPCR) analysis was performed using the PowerUp^TM SYBR^TM Green mixture (Thermo Fisher Scientific) and the StepOnePlus Real Time PCR System (Thermo Fisher Scientific). Gene expression levels were calculated from Ct values, and the relationship between the Ct value and the logarithm of the copy number of a target gene was confirmed to be on a linear line using the corresponding isolated DNA and its serial dilutions as a standard. Thus, the gene expression levels of IL-8 and VEGF were normalized against that of β-actin in each sample. The following primers were used; β-actin, 5′-[…]-3′ and 5′-[…]-3′; IL-8, 5′-[…]-3′ and 5′-[…]-3′; VEGF, 5′-[…]-3′ and 5′-[…]-3′.
as §2, §3

The subject of assay [2] is human TLR4/MD-2 complex. Description: ELISA, TLR4/MD-2 binding to immobilized S100A8-derived peptides (overlapping peptides, alanine scan). To be noted: alanine scan on peptide #3, compared with parental peptide#3, peptide3A5 *P = 0.013. The method, then:
as §1, §2
Fig. 3 Identification of high affinity peptides to TLR4/MD-2 using alanine scanning based on the peptide #3 amino acid sequences. A Lists of peptides used for alanine scanning. […] Similar results were obtained in three independent experiments.

The test system of assay [3] is tumor cells and macrophages. Nature of the assay: Cytokine/chemokine induction in tumor cells and macrophages. To be noted: possible mechanism scheme, Fig. 7I. In kind it is cell-based.
Assay [4] deals with SW480-transplanted xenograft. Nature of the assay: Tumor growth in SW480-transplanted xenograft model. It counts as in vivo, Balb nu/nu mice. Conditions: SW480 xenograft, various concentrations every 3 days, *P < 0.05 vs control.
Assay [5] relates to human TLR4/MD-2 complex. Nature of the assay: ELISA, S100A8 protein or mutant binding to TLR4/MD-2. To be noted: recombinant S100A8 full length or mutant. As to the method: as §1
Fig. 2 Identification of S100A8 binding sites to human TLR4/MD-2. […] TLR4/MD-2 recombinant proteins were immobilized to the ELISA plate. After blocking, a full length or deletion mutant of S100A8 was added to the plate. The more detailed methods are described in Materials and Methods. […] B A series of overlapping S100A8 synthetic peptides. The TLR4/MD-2 recombinant proteins were added to each well of peptide immobilized plates. The affinity to TLR4/MD-2 was determined. Data are shown as mean ± SD. C The competitive activity was determined using ELISA. Data are shown as mean ± SD. D The TLR4/MD-2 was mixed with S100A8 with/without the indicated peptides, and immunoprecipitated using an anti-TLR4 antibody. TLR4 or S100A8 was visualized. […]

In assay [6] the target is tetravalent ILVIK (human). Description: ELISA; tetravalent ILVIK immobilised; after blocking TLR4/MD-2 proteins added at various concentrations (Fig. 7F).
The subject of assay [7] is SW480 cells. Nature of the assay: ELISA, IL-8 and VEGF secretion of SW480 cells. It counts as cell-based, human. To be noted: SW480 cells; data not shown. As to the method:
as §1

A further assay relates to mouse TLR4/MD-2 complex. To be noted: ref [8]; cited from earlier work.

T1 sequence (O00206 24-631 limits assumed): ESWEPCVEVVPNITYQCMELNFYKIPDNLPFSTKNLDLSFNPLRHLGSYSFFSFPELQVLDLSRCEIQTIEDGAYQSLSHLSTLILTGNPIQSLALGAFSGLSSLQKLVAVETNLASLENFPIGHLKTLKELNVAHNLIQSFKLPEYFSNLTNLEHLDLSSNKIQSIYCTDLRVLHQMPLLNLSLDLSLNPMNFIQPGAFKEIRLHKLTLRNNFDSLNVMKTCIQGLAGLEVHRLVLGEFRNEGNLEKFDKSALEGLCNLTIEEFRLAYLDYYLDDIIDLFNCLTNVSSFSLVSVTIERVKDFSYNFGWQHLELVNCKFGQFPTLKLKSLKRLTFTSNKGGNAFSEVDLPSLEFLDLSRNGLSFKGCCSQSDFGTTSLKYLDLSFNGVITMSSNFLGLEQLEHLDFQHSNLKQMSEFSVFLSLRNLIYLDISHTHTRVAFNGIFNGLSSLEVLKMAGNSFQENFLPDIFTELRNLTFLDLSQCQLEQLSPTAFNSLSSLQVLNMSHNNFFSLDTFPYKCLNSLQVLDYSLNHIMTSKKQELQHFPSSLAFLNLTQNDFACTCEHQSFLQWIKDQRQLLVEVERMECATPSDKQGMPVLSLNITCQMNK
T1 sequence (Q9Y6Y9 17-160 partner limits assumed): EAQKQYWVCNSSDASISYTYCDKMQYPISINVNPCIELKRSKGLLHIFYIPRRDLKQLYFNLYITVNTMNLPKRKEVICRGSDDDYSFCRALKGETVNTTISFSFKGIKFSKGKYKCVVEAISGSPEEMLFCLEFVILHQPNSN

In the case of “FQEFA [FQEFA dimer, dimer of FQEFA, peptide3A5 with the last five amino acids deleted]”, the “binding to TLR4/MD-2, peptide3A5-derived peptides” value on TLR4/MD-2 complex is “diminished the capacity of binding to TLR4/MD-2”.
Regarding FQEFAILVIK [peptide3A5], the “competitive inhibition, potency compared with parent” value in the assay with S100A8-TLR4/MD-2 complex is “competed with the S100A8-TLR4/MD-2 complex at a lower dose than peptide #3”; in the assay with S100A8-TLR4/MD-2 complex (listed as Peptide3A5), “more potent for competitive inhibition on S100A8-TLR4/MD-2 complex than peptide #3”. Also, the “pulmonary recruitment of PKH26-labeled LLC cells / lung metastasis” value in the assay on PKH26-labeled LLC cells is “suppressed the pulmonary recruitment of tumor cells”. Also, the “S100A8-mediated VEGF induction (mRNA)” value in the assay with SW480 cells [1] is “reduced”. Besides, the “S100A8-mediated IL-8 induction (mRNA)” value in the assay with SW480 cells [1] (*P < 0.05 vs S100A8) is on record as “reduced”. In addition, the “affinity for TLR4/MD-2, alanine scanning” value in the assay on human TLR4/MD-2 complex [2] is “increased the affinity for TLR4/MD-2”; in the assay with human TLR4/MD-2 complex [2] (listed as Peptide3A5) it was “increased binding affinity to TLR4/MD-2”.
As for “ILVIK [Divalent ILVIK, divalent peptide with two ILVIK motifs on a monolysine core, N-terminus acetylated]”, the “competitive inhibitory activity against TLR4/MD-2, peptide3A5-derived peptides” value is “sustained the competitive inhibitory activity” in the assay with S100A8-TLR4/MD-2 complex (listed as deletion mutant of the FQEFA amino acid sequences) and “candidate inhibitor; also recorded: competitively inhibited S100A8 binding to TLR4/MD-2” in the assay with S100A8-TLR4/MD-2 complex (listed as divalent ILVIK). Also, the induction of cytokines/chemokines entry in [3] was “suppress the induction of cytokines/chemokines in both tumor cells and macrophages”. The “tumor growth, multivalent ILVIK” value is listed as “inhibits tumor growth” in [4] and “inhibited tumor growth in subcutaneously transplanted SW480 cells in a dose-dependent manner” in assay [4] (listed as divalent ILVIK).
“ILVIK [monomeric ILVIK, monovalent ILVIK peptide, N-terminus acetylated]”: in the assay with S100A8-TLR4/MD-2 complex, the “competitive inhibitory activity against TLR4/MD-2, peptide3A5-derived peptides” value is given as “did not perform these activities; also recorded: failed to obtain the competitive inhibitory activities against the TLR4/MD-2 complex”. Moreover, the “binding to TLR4/MD-2, peptide3A5-derived peptides” value on TLR4/MD-2 complex is “did not perform these activities”.
As to “Lys77: peptide #3 with substitution of Lys77 with alanine (FQEFLILVIA)”, the “affinity for TLR4/MD-2, alanine scanning” value with human TLR4/MD-2 complex [2] was “diminished the S100A8 activity of TLR4/MD-2 binding”.
For the molecule “human S100A8: full length human S100A8 recombinant protein”, the “binding to human TLR4/MD-2 (in words)” value with human TLR4/MD-2 complex [5] is listed as “binds to human TLR4/MD-2 complex”.
With “human TLR4/MD-2 complex (from UniProt O00206 24-839; Q9Y6Y9 19-160)”, the equilibrium dissociation constant (Kd) in [6] was 4.58 to 8.78 nM.

B1: S100A8-Lys77Ala: S100A8-Lys77Ala recombinant protein (protein)
chain: MLTELEKALNSIIDVYHKYSLIKGNFHAVYRDDLKKLLETECPQYIRKKGADVWFKELDINTDGAVNFQEFLILVIAMGVAAHKKSHEESHKE
For the molecule B1, the entries for the “binding to human TLR4/MD-2 (in words)” value in the assay with human TLR4/MD-2 complex [5] and in the assay on human TLR4/MD-2 complex [5] (listed as S100A8Lys77Ala) were “hardly bound to the TLR4/MD-2 complex” and “decreased affinity to TLR4/MD-2”, respectively. In addition, the “IL-8 production, S100A8 mutant” value in the assay on SW480 cells [7] is on record as “had no effect on IL-8 production”.

B2: mouse S100A8: mouse S100A8 protein (protein, UniProt P27005 2-89, looked up)
Protein S100-A8: PSELEKALSNLIDVYHNYSNIQGNHHALYKNDFKKMVTTECPQFVQNINIENLFRELDINSDNAINFEEFLAMVIKVGVASHKDSHKE
On to B2, for which the “binding to mouse TLR4/MD-2” value with mouse TLR4/MD-2 complex is “binds to the mouse TLR4/MD-2 complex via the carboxyl-terminal region”.

Usually Kd stands for the equilibrium constant for the complex coming apart. A lower Kd goes with tighter binding.
